Source: patent US8653099B2, “Cold menthol receptor antagonists” (Janssen Pharmaceutica, priority 2008, dated 2014)
Values joined by “and” are separate entries in the source; they are usually repeats but may differ in a detail not shown here. Equal entries are not always repeated.

Columns and labels:
[1] = biological target: T1, canine TRPM8 (Canis lupus familiaris, UniProt Q1A7N1); assay: In vitro canine TRPM8 functional assay (icilin-induced Ca2+ fluorescence, FLIPR/FDSS); format: cell-based; settings: for inhibition at 0.5 µM: HEK293, 0.5 μM compound; for IC50: HEK293 cells stably expressing canine TRPM8, icilin at approx. 80% maximal response, eight-point dose-response; for inhibition at 1 µM: HEK293, 1 μM compound; for inhibition at 0.2 µM: HEK293, 0.2 μM compound
T1 construct: expressed in transfected cells
T1 sequence (Q1A7N1 1-1104): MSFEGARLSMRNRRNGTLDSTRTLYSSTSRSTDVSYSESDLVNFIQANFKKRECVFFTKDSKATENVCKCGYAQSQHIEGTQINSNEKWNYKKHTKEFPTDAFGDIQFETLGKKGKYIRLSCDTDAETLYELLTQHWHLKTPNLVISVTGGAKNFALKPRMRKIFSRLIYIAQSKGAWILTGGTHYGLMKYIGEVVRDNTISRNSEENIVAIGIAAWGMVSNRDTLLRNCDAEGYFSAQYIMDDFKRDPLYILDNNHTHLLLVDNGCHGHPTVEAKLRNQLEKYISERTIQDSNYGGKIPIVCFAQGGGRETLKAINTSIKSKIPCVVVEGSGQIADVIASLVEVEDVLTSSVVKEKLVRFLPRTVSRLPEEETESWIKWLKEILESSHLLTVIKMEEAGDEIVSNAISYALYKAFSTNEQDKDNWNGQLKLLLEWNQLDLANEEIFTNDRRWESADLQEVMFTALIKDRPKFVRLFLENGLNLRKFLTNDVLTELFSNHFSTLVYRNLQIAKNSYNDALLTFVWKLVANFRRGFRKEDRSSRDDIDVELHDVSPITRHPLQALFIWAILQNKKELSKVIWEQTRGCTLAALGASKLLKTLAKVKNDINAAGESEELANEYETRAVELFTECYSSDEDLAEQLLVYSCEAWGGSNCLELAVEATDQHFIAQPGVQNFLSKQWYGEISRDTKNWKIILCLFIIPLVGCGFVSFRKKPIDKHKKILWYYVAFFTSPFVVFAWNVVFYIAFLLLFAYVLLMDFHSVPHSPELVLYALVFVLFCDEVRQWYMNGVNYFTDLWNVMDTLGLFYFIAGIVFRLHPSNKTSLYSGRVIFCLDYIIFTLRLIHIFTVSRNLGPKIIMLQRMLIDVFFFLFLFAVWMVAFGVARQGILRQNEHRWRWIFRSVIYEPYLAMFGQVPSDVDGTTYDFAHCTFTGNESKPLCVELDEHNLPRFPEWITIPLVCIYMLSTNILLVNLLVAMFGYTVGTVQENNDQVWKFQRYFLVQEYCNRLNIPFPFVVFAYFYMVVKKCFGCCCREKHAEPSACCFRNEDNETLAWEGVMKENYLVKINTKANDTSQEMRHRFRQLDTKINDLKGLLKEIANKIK
Procedure: The functional activity of compounds of the formula (I) was determined by measuring changes in intracellular calcium concentration using a Ca^2+-sensitive fluorescent dye. The changes in fluorescent signal were monitored by a fluorescence plate reader, either a FLIPR™ (Molecular Devices) or FDSS (Hamamatsu).
HEK293 cells stably expressing canine TRPM8 were routinely grown as monolayers in Dulbecco's minimum essential medium supplemented with 10% FBS, 2 mM L-glutamine, 100 units/mL penicillin, 100 ug/mL streptomycin and 400 μg/mL G418. Cells were maintained in 5% CO2 at 37° C. At 24 hrs prior to assay, cells were seeded in black wall, clear-base poly-D-lysine coated 384-well plates (BD Biosciences, NJ, USA) at a density of 5,000 cells per well in culture medium and grown overnight in 5% CO2 at 37° C. On assay day, growth media was removed and cells were loaded with Calcium 3 Dye (Molecular Devices) for 35 min at 37° C., under 5% CO2 and then for 25 min at room temperature and atmosphere. Subsequently, cells were tested for agonist-induced increases in intracellular Ca^2+ levels using FLIPR™ or FDSS. Cells were challenged with compounds of the formula (I) (at varying concentrations) and intracellular Ca^2+ was measured for 5 min prior to the addition of icilin to all wells to achieve a final concentration that produces approximately an 80% maximal response.
Maximal fluorescence intensity (FI) achieved upon addition of icilin was exported from the FLIPR or FDSS software and further analyzed using GraphPad Prism 3.02 (Graph Pad Software Inc., CA, U.S.A.). Basal FI was subtracted prior to normalizing data to percent of maximal response. Curves were generated using the average of quadruplicate wells for each data point, were analyzed using nonlinear regression of either sigmoidal dose response or sigmoidal dose response (variable slope). Finally, the EC50 and IC50 values were calculated with the best-fit dose curve determined by GraphPad Prism.

[2] = system: Sprague-Dawley rats; assay: CFA-induced paw radiant heat hypersensitivity; format: in vivo; settings: rat, 30 mg/kg PO, 24 h after intraplantar CFA, radiant heat withdrawal latency
Procedure: Intraplantar injection of complete Freund's adjuvant (CFA) in rodents results in a long-lasting inflammatory reaction, characterized by a pronounced hypersensitivity to both thermal and mechanical stimuli. This hypersensitivity peaks between 24-72 hours following injection and can last for several weeks. To assess whether test compounds of the formula (I) reverse established hypersensitivity, a 100 μL intraplantar injection of CFA (suspended in a 1:1 emulsion of saline and heat-killed Mycobacterium tuberculosis in mineral oil) can be injected into a single hind paw of Sprague-Dawley rats (typically males ranging from 150-350 g). […]
Each rat is placed in a test chamber on a warm glass surface and allowed to acclimate for approximately 10 minutes. […] An initial (baseline) response latency to the thermal stimulus is recorded for each animal prior to the injection of CFA. Twenty-four hours following intraplantar CFA injection, the response latency of the animal to the thermal stimulus is then re-evaluated and compared to the animal's baseline response time. […] Post-compound treatment withdrawal latencies are assessed at fixed time intervals, typically 30, 60 and 120 minutes. The percent reversal (% R) of hypersenstivitiy is calculated according to the following formula: % Reversal=(Treatment Response−CFA Response)/(Baseline Response−CFA Response)×100.

[3] = HEK293 canine TRPM8, icilin challenge

Row | SMILES | inhibition at 0.5 µM [1, 3] | IC50 [1] | further results
1 | O=C(Nc1cccc2cnccc12)C(Nc1ccccc1)c1ccc(C(F)(F)F)cc1 (single isomer, unassigned) [Cpd 31, N-Isoquinolin-5-yl-2-phenylamino-2-(4-trifluoromethyl-phenyl)-acetamide] | – | 17 nM | % Inh @ 0.5 μM ([1]; 0.5 μM compound, HEK293 canine TRPM8, icilin challenge, 0.5 µM): 102.16%
2 | CC(C)(C)c1ccc(C(Nc2ccccc2)C(=O)Nc2cccc3cnccc23)cc1 (stereo not shown) [Cpd 1] | – | 35.8 nM | inhibition at 1 µM [1, 3]: 103%
3 | CN(c1ccccc1)C(C(=O)Nc1cccc2cnccc12)c1ccc(C(C)(C)C)cc1 (stereo not shown) [Cpd 3] | – | 301 nM | inhibition at 1 µM [1, 3]: 101%
4 | O=C(Nc1cccc2cnccc12)C(Nc1ccccc1)c1ccc(C(F)(F)F)cc1 (stereo not shown) [Cpd 4, N-Isoquinolin-5-yl-2-phenylamino-2-(4-trifluoromethyl-phenyl)-acetamide] | 104% | 72 nM and 28.9 nM | inhibition at 1 µM [1, 3]: 102%
5 | CC(C)(C)c1ccc(C(Nc2ccccc2)C(=O)Nc2ccc3cnccc3c2)cc1 (stereo not shown) [Cpd 8] | – | 438 nM | inhibition at 1 µM [1, 3]: 97.5%
6 | O=C(Nc1cccc2cnccc12)C(Nc1ccccc1Cl)c1ccc(C(F)(F)F)cc1 (stereo not shown) [Cpd 11] | 104% | 89.1 nM | –
7 | O=C(Nc1cccc2cnccc12)C(c1ccc(C(F)(F)F)cc1)N1CCc2ccccc21 (stereo not shown) [Cpd 18, 2-(Indolin-1-yl)-N-(isoquinolin-5-yl)-2-(4-(trifluoromethyl)phenyl)acetamide] | 104% | 103 nM | –
8 | O=C(Nc1cccc2cnccc12)C(c1ccc(C(F)(F)F)cc1)N1CCCc2ccccc21 (stereo not shown) [Cpd 19] | 79.7% | 586 nM | –
9 | CC(C)(C)c1ccc(C(Nc2ccccc2)C(=O)Nc2cccc3cn[nH]c23)cc1 (stereo not shown) [Cpd 20] | 101% | 233 nM | –
10 | O=C(Nc1cccc2cnccc12)C(Nc1ccccc1F)c1ccc(C(F)(F)F)cc1 (stereo not shown) [Cpd 24, 2-(2-Fluorophenylamino)-N-(isoquinolin-5-yl)-2-(4-(trifluoromethyl)phenyl)acetamide] | 104% | 54.9 nM and 44.3 nM | % Reversal @ 2 h [2]: 28%
11 | Cc1cccc(C)c1NC(C(=O)Nc1cccc2cnccc12)c1ccc(C(F)(F)F)cc1 (stereo not shown) [Cpd 25] | 99% | 273 nM | –
12 | O=C(Nc1cccc2[nH]ccc12)C(Nc1ccc(F)cc1)c1ccc(C(F)(F)F)cc1 (stereo not shown) [Cpd 34] | 84% | 226 nM | –
13 | O=C(Nc1cccc2cnccc12)C(Nc1ccc(F)cc1)c1ccc(C(F)(F)F)cc1 (stereo not shown) [Cpd 35] | 99% | 73 nM | –
14 | O=C(Nc1cccc2cnccc12)C(Nc1cccc(F)c1)c1ccc(C(F)(F)F)cc1 (stereo not shown) [Cpd 36] | 95% | 119 nM | –
15 | O=C(Nc1cccc2[nH]ccc12)C(Nc1cccc(F)c1)c1ccc(C(F)(F)F)cc1 (stereo not shown) [Cpd 37] | 94% | 217 nM | –
16 | O=C(Nc1cccc2[nH]ccc12)C(Nc1ccccc1)c1ccc(Cl)cc1 (stereo not shown) [Cpd 38] | 84% | 181 nM | –
17 | O=C(Nc1cccc2cnccc12)C(Nc1ccccc1)c1ccc(Cl)cc1 (stereo not shown) [Cpd 39] | 93% | 158 nM | –
18 | O=C(Nc1cccc2cnccc12)C(Nc1ccccc1)c1cccc(C(F)(F)F)c1 (stereo not shown) [Cpd 42] | 96% | 109 nM | –
19 | O=C(Nc1cccc2cnccc12)C(Nc1ccccc1F)c1ccc(Cl)cc1 (stereo not shown) [Cpd 44] | 98% | 96.8 nM | –
20 | O=C(Nc1cccc2cnccc12)C(Nc1c(F)cccc1F)c1ccc(Cl)cc1 (stereo not shown) [Cpd 48] | 98% | 94 nM | –
21 | O=C(Nc1cccc2ncccc12)C(Nc1c(F)cccc1F)c1ccc(Cl)cc1 (stereo not shown) [Cpd 49] | 83% | 92 nM | –
22 | O=C(Nc1cccc2cnccc12)C(Nc1ccc(F)cc1F)c1ccc(C(F)(F)F)cc1 (stereo not shown) [Cpd 50] | 98% | 115 nM | –
23 | O=C(Nc1cccc2cnccc12)C(Nc1cccc(F)c1F)c1ccc(Cl)cc1 (stereo not shown) [Cpd 51] | 87% | 273 nM | –
24 | O=C(Nc1cccc2ncccc12)C(Nc1cccc(F)c1F)c1ccc(Cl)cc1 (stereo not shown) [Cpd 52] | 80% | 219 nM | –
25 | O=C(Nc1cccc2cnccc12)C(Nc1cc(F)ccc1F)c1ccc(Cl)cc1 (stereo not shown) [Cpd 53] | – | 65.3 nM | inhibition at 0.2 µM [1, 3]: 90%
26 | O=C(Nc1cccc2ncccc12)C(Nc1cc(F)ccc1F)c1ccc(Cl)cc1 (stereo not shown) [Cpd 54] | – | 107 nM | inhibition at 0.2 µM [1, 3]: 77%
27 | O=C(Nc1cccc2cnccc12)C(Sc1ccccc1)c1ccc(C(F)(F)F)cc1 (stereo not shown) [Cpd 56, N-(Isoquinolin-5-yl)-2-(phenylthio)-2-(4-(trifluoromethyl)phenyl)acetamide] | – | 130 nM | –

Second part, led by results:

Row | inhibition at 0.5 µM [1, 3] | IC50 [1] | SMILES | further results
28 | 96% | 257 nM | O=C(Nc1cccc2cnccc12)C(Nc1ccccc1)c1ccc(C(F)(F)F)cc1 (single isomer, unassigned) [Cpd 30, N-Isoquinolin-5-yl-2-phenylamino-2-(4-trifluoromethyl-phenyl)-acetamide] | –
29 | – | 118 nM | CC(C)(C)c1ccc(C(Nc2ccccc2)C(=O)Nc2cccc3[nH]ncc23)cc1 (stereo not shown) [Cpd 5] | inhibition at 1 µM [1, 3]: 100%
30 | – | 529 nM | CC(C)(C)c1ccc(C(Nc2ccccc2)C(=O)Nc2cccc3[nH]ccc23)cc1 (stereo not shown) [Cpd 7] | inhibition at 1 µM [1, 3]: 100%
31 | – | 158 nM | O=C(NC1CCc2ccccc21)C(Nc1ccccc1)c1ccc(C(F)(F)F)cc1 (stereo not shown) [Cpd 10, N-Indan-1-yl-2-phenylamino-2-(4-trifluoromethyl-phenyl)-acetamide] | inhibition at 1 µM [1, 3]: 100%
32 | 101% | 261 nM | O=C(Nc1cccc2cnccc12)C(Nc1cccc(Cl)c1)c1ccc(C(F)(F)F)cc1 (stereo not shown) [Cpd 12] | –
33 | 86.9% | 489 nM | O=C(Nc1cccc2cnccc12)C(Nc1ccc(Cl)cc1)c1ccc(C(F)(F)F)cc1 (stereo not shown) [Cpd 13] | –
34 | 95.3% | 287 nM | COc1ccccc1NC(C(=O)Nc1cccc2cnccc12)c1ccc(C(F)(F)F)cc1 (stereo not shown) [Cpd 21] | –
35 | 104% | 38.4 nM | Cc1ccccc1NC(C(=O)Nc1cccc2cnccc12)c1ccc(C(F)(F)F)cc1 (stereo not shown) [Cpd 22] | –
36 | 101% | 84.5 nM | O=C(Nc1cccc2[nH]ncc12)C(Nc1ccccc1)c1ccc(C(F)(F)F)cc1 (stereo not shown) [Cpd 27] | –
37 | 98.3% | 161 nM | O=C(Nc1cccc2cn[nH]c12)C(Nc1ccccc1)c1ccc(C(F)(F)F)cc1 (stereo not shown) [Cpd 28] | –
38 | 85.1% | 441 nM | O=C(Nc1cccc2cccnc12)C(Nc1ccccc1)c1ccc(C(F)(F)F)cc1 (stereo not shown) [Cpd 29] | –
39 | 98% | 82 nM | O=C(Nc1cccc2cnccc12)C(Nc1ccccc1F)c1ccc(Br)cc1 (stereo not shown) [Cpd 41] | –
